Where two headings read alike, the source gives them in different places. One block for each compound: values may come before it.
Legend:
[1] = target: T1, Wistar rat heart PBR (Rattus norvegicus, UniProt P16257); experiment: In vitro potency assay (competition binding against [3H]PK-11195)
T1 construct: PK-11195; from tissue; host or cells: Wistar rat heart
Experimental: Affinity for PBR was screened using a method adapted from Le Fur et al (Life Sci. 1983; USA 33: 449-57).
Each test compound (dissolved in 50 mM Tris-HCl, pH 7.4, 10 mM MgCl2 containing 1% DMSO) competed for binding to Wistar rat heart PBR against 0.3 nM [^3H] […] The reaction was carried out in 50 mM Tris-HCl, pH 7.4 10 mM MgCl2 for 15 minutes at 25° C.

[2] = system: PBR; settings: Wilson et al Nuc. Med. Biol. 2008; cited from earlier work

Compound: CC(=O)N(Cc1cccnc1OCCF)c1ccccc1Oc1ccccc1 [Non-radioactive imaging agent 19, N-[2-(2-Fluoro-ethoxy)-pyridin-3-ylmethyl]-N-(2-phenoxy-phenyl)-acetamide]
Ki ([1]; read-out: Ki): 1.02 nM

Compound: CC(=O)N(Cc1ccccc1OCC[18F])c1cnccc1Oc1ccccc1 [[^18F]-FE-PBR28]
affinity for PBR in vitro [2]: subnanomolar

Compound: COc1ncccc1CN(C(=O)CF)c1ccccc1Oc1ccccc1 [Non-radioactive imaging agent 18, 2-Flouro-N-(2-methoxy-pyridin-3-ylmethyl)-N-(2-phenoxy-phenyl)-acetamide]
Ki [1]: 3.77 nM

Further lines, results first:

measured potency for PBR compared with [18F]-FE-PBR28 ([1]; relative to FE-PBR28): two orders of magnitude less
Compound: CC(=O)N(Cc1ccccc1OCC[18F])c1cccnc1Oc1ccccc1 [Imaging Agent 1]

Ki ([1]; read-out: Ki): 4.24 nM
Compound: CC(=O)N(Cc1ccccc1OCCF)c1cccnc1Oc1ccccc1 [Non-radioactive imaging agent 1, N-[2(2-fluoroethoxy)benzyl]-N-(2-phenoxypyridin-3-yl)acetamide]

— US20120003154A1, “ARYLOXYANILIDE DERIVATIVES” (priority 2009, published 2012)
